Measured values published in US20100144779A1, “Marine Alkalod Makaluvamines and Derivatives Thereof” (THE UAB RESEARCH FOUNDATION, priority 2007, published 2010).

Experiments:
Assay in all cases: NCI60 cell line screen (SRB)
Type in all cases: cell-based, human
786-0 = conditions: 786-0, Renal Cancer, 48 h
Experimental: (§1) This panel implements the NCI60 cell line screen, including leukemia, non-small cell lung cancer, colon cancer, central nervous system cancer, melanoma, ovarian cancer, renal cancer, prostate cancer and breast cancer. The cell lines tested are specified in Table 3.
(§2) Generally, the human tumor cell lines of the cancer screening panel are grown in RPMI 1640 medium containing 5% fetal bovine serum and 2 mM L-glutamine. For a typical screening experiment, cells are inoculated into 96 well microtiter plates in 100 μL at plating densities ranging from 5,000 to 40,000 cells/well depending on the doubling time of individual cell lines. After cell inoculation, the microtiter plates are incubated at 37° C., 5% CO2, 95% air and 100% relative humidity for 24 h prior to addition of experimental drugs. After 24 h, two plates of each cell line are fixed in situ with TCA, to represent a measurement of the cell population for each cell line at the time of drug addition (Tz). Experimental drugs are solubilized in dimethyl sulfoxide at 400-fold the desired final maximum test concentration and stored frozen prior to use. At the time of drug addition, an aliquot of frozen concentrate is thawed and diluted to twice the desired final maximum test concentration with complete medium containing 50 μg/ml gentamicin. Additional four, 10-fold or ½ log serial dilutions are made to provide a total of five drug concentrations plus control. Aliquots of 100 μl of these different drug dilutions are added to the appropriate microtiter wells already containing 100 μl of medium, resulting in the required final drug concentrations.
(§3) Following drug addition, the plates are incubated for an additional 48 h at 37° C., 5% CO2, 95% air, and 100% relative humidity. For adherent cells, the assay is terminated by the addition of cold TCA. Cells are fixed in situ by the gentle addition of 50 μl of cold 50% (w/v) TCA (final concentration, 10% TCA) and incubated for 60 minutes at 4° C. The supernatant is discarded, and the plates are washed five times with tap water and air dried. Sulforhodamine B (SRB) solution (100 μl) at 0.4% (w/v) in 1% acetic acid is added to each well, and plates are incubated for 10 minutes at room temperature. After staining, unbound dye is removed by washing five times with 1% acetic acid and the plates are air dried. Bound stain is subsequently solubilized with 10 mM trizma base, and the absorbance is read on an automated plate reader at a wavelength of 515 nm. For suspension cells, the methodology is the same except that the assay is terminated by fixing settled cells at the bottom of the wells by gently adding 50 μl of 80% TCA (final concentration, 16% TCA). Using the seven absorbance measurements (time zero, Tz, control growth, (control), and test growth in the presence of drug at the five concentration levels (Ti)), the percentage growth is calculated at each of the drug concentrations levels. Percentage growth inhibition is calculated as:
(§4) [(Ti−Tz)/(C−Tz)]×100 for concentrations for which Ti>/=Tz
(§5) [(Ti−Tz)/Tz]×100 for concentrations for which Ti<Tz.

A498 = conditions: A498, Renal Cancer, 48 h
Experimental: as §1, §2, §3, §4, §5

ACHN = conditions: Renal Cancer, 48 h
Experimental: as §1, §2, §3, §4, §5

CCRF-CEM = conditions: Leukemia, 48 h
Experimental: as §1, §2, §3, §4, §5

COLO 205 = conditions: COLO 205, Colon Cancer, 48 h
Experimental: as §1, §2, §3, §4, §5

DU-145 = conditions: DU-145, Prostate Cancer, 48 h
Experimental: as §1, §2, §3, §4, §5

HCC-2998 = conditions: HCC-2998, Colon Cancer, 48 h
Experimental: as §1, §2, §3, §4, §5

HCT-116 = conditions: HCT-116, Colon Cancer, 48 h
Experimental: as §1, §2, §3, §4, §5

HOP-62 = conditions: HOP-62, Non-Small Cell Lung Cancer, 48 h
Experimental: as §1, §2, §3, §4, §5

HOP-92 = conditions: HOP-92, Non-Small Cell Lung Cancer, 48 h
Experimental: as §1, §2, §3, §4, §5

IGROV1 = conditions: IGROV1, Ovarian Cancer, 48 h
Experimental: as §1, §2, §3, §4, §5

M14 = conditions: M14, Melanoma, 48 h
Experimental: as §1, §2, §3, §4, §5

MCF-7 = conditions: MCF-7, Breast Cancer, 48 h
Experimental: as §1, §2, §3, §4, §5

MDA-MB-435 = conditions: MDA-MB-435, Breast Cancer, 48 h
Experimental: as §1, §2, §3, §4, §5

MOLT-4 = conditions: MOLT-4, Leukemia, 48 h
Experimental: as §1, §2, §3, §4, §5

OVCAR5 = conditions: OVCAR5, Ovarian Cancer, 48 h
Experimental: as §1, §2, §3, §4, §5

OVCAR8 = conditions: OVCAR8, Ovarian Cancer, 48 h
Experimental: as §1, §2, §3, §4, §5

SF-539 = conditions: SF-539, CNS Cancer, 48 h
Experimental: as §1, §2, §3, §4, §5

SK-MEL-28 = conditions: SK-MEL-28, Melanoma, 48 h
Experimental: as §1, §2, §3, §4, §5

SK-MEL-5 = conditions: SK-MEL-5, Melanoma, 48 h
Experimental: as §1, §2, §3, §4, §5

SK-OV-3 = conditions: SK-OV-3, Ovarian Cancer, 48 h
Experimental: as §1, §2, §3, §4, §5

SNB-75 = conditions: SNB-75, CNS Cancer, 48 h
Experimental: as §1, §2, §3, §4, §5

TK-10 = conditions: TK-10, Renal Cancer, 48 h
Experimental: as §1, §2, §3, §4, §5

U251 = conditions: U251, CNS Cancer, 48 h
Experimental: as §1, §2, §3, §4, §5

UACC-62 = conditions: UACC-62, Melanoma, 48 h
Experimental: as §1, §2, §3, §4, §5

O=C(O)C(F)(F)F.O=C1C(NCCc2ccc3c(c2)OCO3)=CC2=NCCc3c[nH]c1c32 [Compound 6] was tested, and the GI50 (786-0; Homo sapiens) was 3980 nM, the GI50 (A498; Homo sapiens) was 6030 nM and the GI50 (ACHN; Homo sapiens) was 3250 nM. For the same compound, the GI50 (CCRF-CEM; Homo sapiens) was 2970 nM, the GI50 (COLO 205; Homo sapiens) was 1020 nM and the GI50 (DU-145; Homo sapiens) was 1350 nM. The GI50 (HCC-2998; Homo sapiens) was 1560 nM, the GI50 (HCT-116; Homo sapiens) was 2410 nM and the GI50 (HOP-62; Homo sapiens) was 2500 nM. For the same compound, the GI50 (HOP-92; Homo sapiens) was 5450 nM, the GI50 (IGROV1; Homo sapiens, IGROV-1) was 2520 nM and the GI50 (M14; Homo sapiens) was 1430 nM. The GI50 (MCF-7; Homo sapiens, MCF7) was 1210 nM, the GI50 (MDA-MB-435; Homo sapiens) was 1890 nM and the GI50 (MOLT-4; Homo sapiens) was 2020 nM. The GI50 (OVCAR5; Homo sapiens, OVCAR-5) was 2720 nM, the GI50 (OVCAR8; Homo sapiens, OVCAR-8) was 1620 nM and the GI50 (SF-539; Homo sapiens) was 2210 nM. It also gave a GI50 (SK-MEL-28; Homo sapiens) of 4910 nM, a GI50 (SK-MEL-5; Homo sapiens) of 965 nM and a GI50 (SK-OV-3; Homo sapiens) of 9700 nM. For the same compound, the GI50 (SNB-75; Homo sapiens) was 3490 nM, the GI50 (TK-10; Homo sapiens) was 4510 nM and the GI50 (U251; Homo sapiens, U-251) was 3050 nM. For the same compound, the GI50 (UACC-62; Homo sapiens) was 2320 nM.

O=C(O)C(F)(F)F.O=C1C(NCc2ccc(F)cc2)=CC2=NCCc3c[nH]c1c32 [Compound 28] was tested, and the GI50 (786-0; Homo sapiens) was 3450 nM, the GI50 (A498; Homo sapiens) was 3110 nM and the GI50 (ACHN; Homo sapiens) was 2040 nM. For the same compound, the GI50 (CCRF-CEM; Homo sapiens) was 1430 nM, the GI50 (COLO 205; Homo sapiens) was 365 nM and the GI50 (DU-145; Homo sapiens) was 1080 nM. For the same compound, the GI50 (HCC-2998; Homo sapiens) was 2700 nM, the GI50 (HCT-116; Homo sapiens) was 715 nM and the GI50 (HOP-62; Homo sapiens) was 3790 nM. For the same compound, the GI50 (HOP-92; Homo sapiens) was 1680 nM, the GI50 (IGROV1; Homo sapiens, IGROV-1) was 1430 nM and the GI50 (M14; Homo sapiens) was 1440 nM. It also gave a GI50 (MCF-7; Homo sapiens, MCF7) of 160 nM, a GI50 (MDA-MB-435; Homo sapiens) of 1750 nM and a GI50 (MOLT-4; Homo sapiens) of 793 nM. It also gave a GI50 (OVCAR5; Homo sapiens, OVCAR-5) of 2370 nM, a GI50 (OVCAR8; Homo sapiens, OVCAR-8) of 1970 nM and a GI50 (SF-539; Homo sapiens) of 1740 nM. It also gave a GI50 (SK-MEL-28; Homo sapiens) of 5780 nM, a GI50 (SK-MEL-5; Homo sapiens) of 325 nM and a GI50 (SK-OV-3; Homo sapiens) of 3150 nM. The GI50 (SNB-75; Homo sapiens) was 5200 nM, the GI50 (TK-10; Homo sapiens) was 3190 nM and the GI50 (U251; Homo sapiens, U-251) was 1990 nM. For the same compound, the GI50 (UACC-62; Homo sapiens) was 1560 nM.

For O=C1C(NCc2ccccc2)=CC2=NCCc3c[nH]c1c32 [Compound 4c], the GI50 (786-0) was 3220 nM, the GI50 (A498) was 16500 nM and the GI50 (ACHN) was 2800 nM. The GI50 (CCRF-CEM) was 900 nM, the GI50 (COLO 205) was 378 nM and the GI50 (DU-145) was 1790 nM. It also gave a GI50 (HCC-2998) of 2610 nM, a GI50 (HCT-116) of 306 nM and a GI50 (HOP-62) of 3700 nM. It also gave a GI50 (HOP-92) of 308 nM, a GI50 (IGROV1) of 793 nM and a GI50 (M14) of 1280 nM. The GI50 (MCF-7) was 61 nM, the GI50 (MDA-MB-435) was 2030 nM and the GI50 (MOLT-4) was 315 nM. The GI50 (OVCAR5) was 2670 nM, the GI50 (OVCAR8) was 2080 nM and the GI50 (SF-539) was 1910 nM. It also gave a GI50 (SK-MEL-28) of 7420 nM, a GI50 (SK-MEL-5) of 462 nM and a GI50 (SK-OV-3) of 7010 nM. The GI50 (SNB-75) was 1650 nM, the GI50 (TK-10) was 4720 nM and the GI50 (U251) was 2660 nM. It also gave a GI50 (UACC-62) of 1820 nM.
